Laboratory results published in the supplement of paper PMC10307832.

What was measured:
Assay in all cases: relative viability (nuclei count vs DMSO), 5 days (fraction); higher = more cells survive
RAF265 + Foretinib = compound: Cn1c(Nc2ccc(C(F)(F)F)cc2)nc2cc(Oc3ccnc(-c4ncc(C(F)(F)F)[nH]4)c3)ccc21 [RAF265] + COc1cc2c(Oc3ccc(NC(=O)C4(C(=O)Nc5ccc(F)cc5)CC4)cc3F)ccnc2cc1OCCCN1CCOCC1 [Foretinib] (partner 0.25 µM)
Outline: (§1)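 One day after seeding in 1536-well plates, lung cancer cell lines were dosed by pin tool. Dosing was either single-drug or a fixed anchor-drug dose plus five library-drug doses (not always all listed) in √10 steps. After 5 days, nuclei were stained in one fix-and-stain step and counted on 4× images, and relative viability is the nuclei count of treated wells over that of vehicle wells, given as the median of duplicate plates.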

Doramapimod + AZD7762 = compound: Cc1ccc(-n2nc(C(C)(C)C)cc2NC(=O)Nc2ccc(OCCN3CCOCC3)c3ccccc23)cc1 [Doramapimod] + NC(=O)Nc1cc(-c2cccc(F)c2)sc1C(=O)N[C@H]1CCCNC1 [AZD7762] (partner 0.2 µM)
Outline: as §1

RAF265 + Dasatinib = compound: Cn1c(Nc2ccc(C(F)(F)F)cc2)nc2cc(Oc3ccnc(-c4ncc(C(F)(F)F)[nH]4)c3)ccc21 [RAF265] + Cc1nc(Nc2ncc(C(=O)Nc3c(C)cccc3Cl)s2)cc(N2CCN(CCO)CC2)n1 [Dasatinib] (partner 0.075 µM)
Outline: as §1

IPA-3 + Pemetrexed = compound: C1=CC=C2C(=C1)C=CC(=C2SSC3=C(C=CC4=CC=CC=C43)O)O [IPA-3] + Nc1nc2[nH]cc(CCc3ccc(C(=O)N[C@@H](CCC(=O)O)C(=O)O)cc3)c2c(=O)[nH]1 [Pemetrexed] (partner 0.2 µM)
Outline: as §1

Row | Cell Line | relative viability (RAF265 + Foretinib; first compound 0.01 µM) | relative viability (RAF265 + Foretinib; first compound 0.03162 µM) | relative viability (RAF265 + Foretinib; first compound 0.1 µM) | relative viability (RAF265 + Foretinib; first compound 0.3162 µM) | relative viability (RAF265 + Foretinib; first compound 1 µM) | relative viability (Doramapimod + AZD7762; first compound 0.02 µM) | relative viability (Doramapimod + AZD7762; first compound 0.06325 µM) | relative viability (Doramapimod + AZD7762; first compound 0.2 µM) | relative viability (Doramapimod + AZD7762; first compound 0.6325 µM) | relative viability (Doramapimod + AZD7762; first compound 2 µM) | relative viability (RAF265 + Dasatinib; first compound 0.01 µM) | relative viability (RAF265 + Dasatinib; first compound 0.03162 µM) | relative viability (RAF265 + Dasatinib; first compound 0.1 µM) | relative viability (RAF265 + Dasatinib; first compound 0.3162 µM) | relative viability (RAF265 + Dasatinib; first compound 1 µM) | relative viability (IPA-3 + Pemetrexed; first compound 0.2 µM) | relative viability (IPA-3 + Pemetrexed; first compound 0.6325 µM) | relative viability (IPA-3 + Pemetrexed; first compound 2 µM) | relative viability (IPA-3 + Pemetrexed; first compound 6.325 µM) | relative viability (IPA-3 + Pemetrexed; first compound 20 µM)
1 | NCI-H727 | 0.879 | 0.895 | 0.98 | 0.744 | 0.454 | 0.605 | 0.576 | 0.642 | 0.487 | 0.528 | 0.57 | 0.427 | 0.352 | 0.279 | 0.23 |  |  |  |  | 
2 | NCI-H2228 | 0.893 | 0.819 | 0.781 | 0.542 | 0.386 |  |  |  |  |  | 0.484 | 0.535 | 0.397 | 0.179 | 0.139 | 0.369 | 0.334 | 0.336 | 0.354 | 0.341
3 | SK-LU-1 | 0.889 | 0.615 | 0.491 | 0.411 | 0.318 |  |  |  |  |  | 0.177 | 0.177 | 0.166 | 0.181 | 0.137 | 1.16 | 0.938 | 1.01 | 0.926 | 1.14
4 | NCI-H1648 |  |  |  |  |  | 0.653 | 0.695 | 0.63 | 0.548 | 0.59 |  |  |  |  |  | 0.69 | 0.855 | 0.558 | 0.584 | 0.777
5 | NCI-H522 |  |  |  |  |  | 0.879 | 0.744 | 0.708 | 0.736 | 0.9 | 0.847 | 0.9 | 0.811 | 0.919 | 0.764 | 1.02 | 0.772 | 0.855 | 1.08 | 1.13
6 | IA-LM | 1.21 | 0.933 | 1 | 0.946 | 0.769 |  |  |  |  |  |  |  |  |  |  |  |  |  |  | 
7 | COR-L 105 | 1.29 | 1.5 | 1.1 | 1.15 | 0.614 |  |  |  |  |  | 0.311 | 0.319 | 0.258 | 0.159 | 0.158 | 1.22 | 0.904 | 1.07 | 1.18 | 1.14
8 | NCI-H2023 | 0.86 | 0.875 | 0.893 |  | 0.553 |  |  |  |  |  | 0.601 | 0.562 | 0.516 | 0.419 | 0.365 | 0.249 | 0.207 | 0.266 | 0.227 | 0.243
9 | EBC-1 | 0.101 | 0.112 | 0.0984 | 0.107 | 0.113 |  |  |  |  |  |  |  |  |  |  |  |  |  |  | 
10 | ABC-1 | 1.16 | 1.15 | 1.2 | 1.08 | 0.514 | 0.761 | 0.674 | 0.874 | 0.794 | 0.674 | 0.594 | 0.562 | 0.601 | 0.498 | 0.378 |  |  |  |  | 
11 | NCI-H520 | 0.763 | 0.585 | 0.749 | 0.819 | 0.474 |  |  |  |  |  | 0.177 | 0.206 | 0.197 | 0.187 | 0.171 | 0.75 | 0.664 |  | 0.64 | 0.755
12 | NCI-H1650 | 1.01 | 1.29 | 1.35 | 1.17 | 0.953 |  |  |  |  |  | 0.413 | 0.392 | 0.342 | 0.399 | 0.282 | 0.346 | 0.39 | 0.398 | 0.364 | 0.466
13 | SK-MES-1 | 1.04 | 0.932 | 0.816 | 0.529 | 0.369 |  |  |  |  |  | 0.482 | 0.203 | 0.164 | 0.171 | 0.157 | 1.04 | 0.886 | 0.991 | 0.824 | 0.918
14 | NCI-H1563 | 1.05 | 1 | 0.984 | 0.989 | 0.935 |  |  |  |  |  | 0.469 | 0.482 | 0.508 | 0.45 | 0.441 | 0.807 | 0.797 | 0.792 | 1 | 0.864
15 | NCI-H1299 | 1.12 | 0.863 | 1.08 | 1.07 | 0.749 |  |  |  |  |  |  |  |  |  |  |  |  |  |  | 
16 | A549 | 0.927 | 0.928 | 0.988 | 0.557 | 0.481 |  |  |  |  |  |  |  |  |  |  |  |  |  |  | 
17 | NCI-H1623 | 0.977 | 0.867 | 0.983 | 0.39 | 0.562 |  |  |  |  |  | 0.558 | 0.496 | 0.645 |  | 0.313 |  |  |  |  | 
18 | NCI-H1703 | 0.335 | 0.318 | 0.351 | 0.357 | 0.253 |  | 0.118 | 0.108 | 0.0991 | 0.113 |  |  |  |  |  |  |  |  |  | 
19 | NCI-H661 | 1.05 | 0.944 | 0.685 | 0.636 | 0.521 |  |  |  |  |  | 0.925 | 0.771 | 0.546 | 0.598 | 0.42 | 0.934 | 0.962 | 0.877 | 0.911 | 0.907
20 | NCI-H2009 | 1.29 | 1.25 | 1.14 | 1.1 | 0.658 |  |  |  |  |  | 0.3 | 0.262 | 0.227 | 0.214 | 0.147 | 1.16 | 0.974 | 1.03 | 0.958 | 1.09
21 | HCC-44 |  |  |  |  |  | 1.06 | 1.02 | 1.04 | 1.01 | 1.07 |  |  |  |  |  | 0.607 | 0.575 | 0.588 | 0.617 | 0.616
22 | Calu-6 | 0.899 | 0.782 | 0.763 | 0.428 | 0.29 |  |  |  |  |  |  |  |  |  |  |  |  |  |  | 
23 | COR-L23 | 1.01 | 0.962 | 0.864 | 0.893 | 0.644 |  |  |  |  |  | 0.503 | 0.473 | 0.383 | 0.32 | 0.251 | 0.212 | 0.194 | 0.193 | 0.198 | 0.204
24 | SW 1573 | 1 | 1.01 | 0.887 | 0.792 | 0.732 |  |  |  |  |  | 0.54 | 0.442 | 0.31 | 0.29 | 0.21 | 0.964 | 0.87 | 0.921 | 0.906 | 0.162
